Reference: US20140227318A1, “SLEEP QUALITY IMPROVING AGENT” (LION CORPORATION, priority 2011, published 2014)

Legend:
male C57BL/6 mice = assay: Measurement of amount of activity of mice (sleep inducing effect); format: in vivo, mouse; details: oral; for CUMULATIVE AMOUNT OF ACTIVITY 6 HOURS AFTER ADMINISTRATION: n=8; for sleep inducing effect: conclusion from amount of activity
Protocol: To check the sleep inducing effect of the S-adenosylmethionine-containing yeast, the following test was performed using respective samples shown in TABLE 1.
The S-adenosylmethionine-containing yeast (the sample in Example 1) used was “AMee (trade name)” manufactured by IWATA CHEMICAL CO., LTD. “Nissin Super Camellia dry yeast (trade name)” manufactured by Nisshin Foods Inc. was used as a yeast containing no adenosylmethionine (the sample in Comparative Example 2). S-adenosylmethionine disulfate tosylate (the sample in Comparative Example 3) used was S-adenosylmethionine disulfate tosylate manufactured by CHEMaster. The sample in Comparative Example 2 and the sample in Comparative Example 3 were mixed and used as a mixture of the yeast containing no S-adenosylmethionine and S-adenosylmethionine disulfate tosylate (the sample in Comparative Example 4). S-adenosylmethionine chloride used in Comparative Example 5 (the sample in Comparative Example 5) was a reagent from
SIGMA. In each of Example 1 and Comparative Examples 2, 3, 4, and 5, a suspension of the sample in a 0.5% by mass aqueous methyl cellulose solution was prepared and used as a sample solution for an experiment. A 0.5% by mass aqueous methyl cellulose solution (the sample in Comparative Example 1) was used as a control solution.
When a sample has the function of inducing sleep, the amount of activity always decreases after administration of the sample. Therefore, the sleep inducing effect of each sample was evaluated by determining whether or not the administration of the sample solution to a mouse caused a reduction in the amount of activity.
8-Week old or 9-week old male C57BL/6 mice were purchased from Japan SLC, Inc. and acclimatized for 3 to 6 days. The amount of activity during acclimatization was used to divide the mice into administration groups. Immediately before the onset of the dark period, a sample solution or the control solution was orally administered in an amount of 10 mL/kg per body weight, and the amount of activity was measured for 24 hours after administration. Each administration group included 8 mice (n=8).
The amount of activity was measured under the following conditions. The mice were raised in individual cages, and an infrared camera was disposed above each cage. The imaging range of the infrared camera was divided into 64 sections, and the number of occurrences that the mouse crossed a section was measured. The number of occurrences was collected every 30 minutes.
In FIG. 2, “**” represents that a significant difference was found at p<0.01.

[1] = intravenous injection or intramuscular injection; cited from earlier work

Row | Compound | CUMULATIVE AMOUNT OF ACTIVITY 6 HOURS AFTER ADMINISTRATION (male C57BL/6 mice; 293 mg/kg (150 mg/kg in terms of S-adenosylmethionine)) | sleep inducing effect (male C57BL/6 mice) | influence on sleep onset latency [1] | length of NREM sleep (stage 4) [1] | CUMULATIVE AMOUNT OF ACTIVITY 6 HOURS AFTER ADMINISTRATION (male C57BL/6 mice; 150 mg/kg (137 mg/kg in terms of S-adenosylmethionine))
1 | S-adenosylmethionine disulfate tosylate [Comparative Example 3] | 8618 NUMBER OF OCCURRENCES/6 HOURS | no sleep inducing effect | no influence | extended | –
2 | C[S+](CC[C@H](N)C(=O)O)C[C@H]1O[C@@H](n2cnc3c(N)ncnc32)[C@H](O)[C@@H]1O.[Cl-] (stereo partly drawn) [Comparative Example 5, S-adenosylmethionine chloride] | – | no sleep inducing effect | – | – | 7068 NUMBER OF OCCURRENCES/6 HOURS
